According to the supplement of paper PMC8882468:

Key:
Experiment in all cases: CTG-3D luminescence at 96 h relative to day-0 seeding control (ratio to day 0); higher = more growth / less cytotoxicity; PDxO 3D drug screen, 96 h, CTG-3D normalised to day-0 seeding control.
[1] = test system: HCI-019 (organoid from a triple-negative breast cancer xenograft)
[2] = test system: HCI-008 (organoid from a HER2-enriched breast cancer xenograft)
[3] = test system: HCI-025 (organoid from a breast cancer xenograft)
[4] = test system: HCI-010 (organoid from a breast cancer xenograft)
[5] = test system: HCI-016 (organoid from a triple-negative breast cancer xenograft)
[6] = test system: HCI-027 (organoid from a triple-negative breast cancer xenograft)

C[C@H](NC(=O)CCC(F)(F)F)C(=O)N[C@@H]1C(=O)N(CCO)c2ncccc2-c2ccccc21 [crenigacestat]
CTG-3D luminescence at 96 h
Conditions | 12.5 pM | 0.00025 µM | 0.005 µM | 0.1 µM | 1 µM | 10 µM | 100 µM | 625 fM
[1], days in culture: 110 | 1.5 | 1.45 | 1.75 | 2.18 | 1.25 | 2.5 | 2.44 | 2.28
[1], days in culture: 131 | 2.19 | 3.56 | 1.97 | 2.86 | 2.87 | 2.81 | 3.41 | 3.74
[1], days in culture: 152 | 3.73 | 3.39 | 2.6 | 2.64 | 1.96 | 2.12 | 2 | 2.48
[2], days in culture: 228 | 1.8 | 1.66 | 1.56 | 1.47 | 1.73 | 1.7 | 1.65 | 1.9
[2], days in culture: 244 | 1.23 | 1.65 | 1.55 | 1.79 | 1.38 | 1.57 | 1.38 | 1.79
[3], days in culture: 172 | 2.73 | 1.6 | 2.79 | 2.23 | 3.2 | 1.64 | 1.98 | 2.44
[3], days in culture: 209 | 2.02 | 2.25 | 2.26 | 1.61 | 1.76 | 1.57 | 1.45 | 1.58
[3], days in culture: 218 | 1.89 | 2.02 | 1.67 | 1.69 | 1.75 | 2.32 | 1.58 | 2.02
[4], days in culture: 52 | 2.36 | 2.09 | 2.19 | 2.54 | 2.37 | 2.23 | 2.04 | 2
[4], days in culture: 65 | 1.61 | 1.63 | 1.79 | 1.64 | 1.79 | 1.6 | 1.45 | 1.67
[4], days in culture: 103 | 3.59 | 3.73 | 3.34 | 3.15 | 3.09 | 2.87 | 2.58 | 2.85
[5], days in culture: 153 | 2.83 | 1.83 | 2.67 | 1.66 | 2.21 | 2.33 | 2.19 | 2.92
[5], days in culture: 172 | 2.16 | 1.87 | 1.71 | 1.66 | 1.58 | 1.14 | 1.76 | 1.73
[5], days in culture: 190 | 1.45 | 1.02 | 1.29 | 0.549 | 0.838 | 1.52 | 1.74 | 0.976
[5], days in culture: 199 | 1.48 | 1.3 | 1.49 | 1.38 | 1.78 | 1.57 | 1.73 | 1.76
[6], days in culture: 176 | 1.81 | 1.25 | 0.916 | 0.198 | 0.179 | 0.173 | 0.335 | 1.6
[6], days in culture: 194 | 1.84 | 1.19 | 0.958 | 0.251 | 0.276 | 0.312 | 0.344 | 1.57
[6], days in culture: 201 | 2.13 | 1.77 | 1.26 | 0.249 | 0.206 | 0.258 | 0.259 | 1.97

Nc1ccn([C@@H]2O[C@H](CO)[C@@H](O)C2(F)F)c(=O)n1 [gemcitabine]
CTG-3D luminescence at 96 h
Conditions | 12.5 pM | 0.00025 µM | 0.005 µM | 0.1 µM | 1 µM | 10 µM | 100 µM | 625 fM
[1], days in culture: 110 | 1.7 | 1.3 | 0.347 | 0.296 | 0.241 | 0.237 | 0.181 | 2.3
[1], days in culture: 131 | 2.42 | 3.53 | 0.976 | 0.427 | 0.344 | 0.344 | 0.213 | 3.6
[1], days in culture: 152 | 2.8 | 4.1 | 0.623 | 0.432 | 0.375 | 0.521 | 0.424 | 2.77
[2], days in culture: 228 | 1.403 | 1.8 | 1.3404 | 0.6483 | 0.596 | 0.717 | 0.362 | 1.48
[2], days in culture: 244 | 1.25 | 1.74 | 1.74 | 1.26 | 0.69 | 0.873 | 0.465 | 2.18
[3], days in culture: 172 | 3.01 | 1.72 | 2.29 | 0.436 | 0.742 | 0.364 | 0.195 | 2.47
[3], days in culture: 209 | 2.06 | 2.11 | 1.83 | 0.884 | 0.873 | 0.449 | 0.155 | 1.79
[3], days in culture: 218 | 1.86 | 2.09 | 1.77 | 0.5 | 0.362 | 0.365 | 0.143 | 1.79
[4], days in culture: 52 | 2.22 | 2.17 | 0.657 | 0.455 | 0.327 | 0.234 | 0.123 | 2.32
[4], days in culture: 65 | 1.64 | 1.79 | 0.508 | 0.23 | 0.163 | 0.0878 | 0.0546 | 1.68
[4], days in culture: 103 | 3.39 | 3.81 | 0.867 | 0.503 | 0.479 | 0.241 | 0.123 | 3.42
[5], days in culture: 153 | 2.99 | 1.91 | 2.52 | 0.96 | 0.509 | 0.286 | 0.0753 | 2.4
[5], days in culture: 172 | 1.95 | 1.97 | 1.64 | 0.366 | 0.257 | 0.0907 | 0.0466 | 1.66
[5], days in culture: 190 | 1.61 | 1.34 | 1.52 | 0.261 | 0.268 | 0.122 | 0.0539 | 1.21
[5], days in culture: 199 | 1.57 | 1.28 | 1.3 | 0.174 | 0.16 | 0.112 | 0.0387 | 1.49
[6], days in culture: 176 | 2.02 | 1.16 | 1.52 | 0.363 | 0.366 | 0.298 | 0.25 | 2.36
[6], days in culture: 194 | 1.78 | 1.42 | 0.983 | 0.145 | 0.284 | 0.28 | 0.115 | 1.66
[6], days in culture: 201 | 2.19 | 1.37 | 0.658 | 0.204 | 0.136 | 0.21 | 0.104 | 2.28
